Results as given in patent publication US12578273B2, “Ph-reversible leuco-BODIPY probe for in situ visualization of extracellular vesicles and their secretion from living cells” (The Chinese University of Hong Kong, priority 2021, dated 2026).

Tests used:
[1] = pH-dependent spectroscopic properties (pH titration, absorption and fluorescence); assay type: physicochemical; settings: weakly basic conditions (pH of about 7.4); PBS containing 50% ethanol
Description: In each step of pH titration, small volumes (2-10 μL) of HCl at appropriate concentrations (0.1, 10^−2, or 10^−3 M) were pipetted directly into the measurement cell, followed by filling up with 2 mL of 1 μM dye-containing solution [either in a mixture of PBS/ethanol 1:1 (v/v) or 0.5% (v/v) DMSO]. The pH was monitored at 298 K using a digital pH meter (827 pH lab) equipped with a Biotrode (Metrohm, Herisau, Switzerland). Calibration of the instrument was performed with standard aqueous solutions of pH 4, 7, and 9 from Metrohm. Absorption and fluorescence measurements were carried out on an Agilent Cary 5000 spectrophotometer and a Horiba Jobin Yvon spectrometer (Nanolog FL3-2iHR), respectively.
We investigated the spectroscopic properties of the fluorescent probe as a function of pH in phosphate-buffered saline (PBS) containing 50% ethanol by UV-vis spectrophotometry and fluorimetry (FIGS. 21A-21F, 22-23).

A549 cells = experiment: Cytotoxicity of the probe (alamarBlue cell viability); assay type: cell-based; settings: 2 μM, 0.1% DMSO, 12 h
Description: (§1) FIGS. 28A-28C Cytotoxicity of the probe. Pre-seeded in 96-well plates, HEK293, HeLa, and A549 cells were incubated in complete DMEM containing different concentrations of leuco-BODIPY [dissolved in dimethyl sulfoxide (DMSO)] for 12 h. The alamarBlue reagent (Invitrogen) was used to test cell viability by measuring the optical absorbance at 570 nm and 600 nm by a Multiskan GO UV-absorbance microplate reader. Reported data represent mean±SD from three independent experiments.
(§2) We studied the mechanism for the cellular uptake of our probe by a pharmacological approach.

HEK293 cells = experiment: as above; assay type: cell-based; settings: 2 μM, 0.1% DMSO, 12 h
Description: as §1, §2

HeLa cells [2] = experiment: as above; assay type: cell-based; settings: 2 μM, 0.1% DMSO, 12 h
Description: as §1, §2

[3] = tested on: EVs secreted by A549 cells; experiment: Estimation of the fluorescence signal per EV; assay type: cell-based; settings: 5 μM leuco-BODIPY, 30 min, excitation 584 nm, emission 612 nm, net fluorescence divided by number of EVs (NTA)
Description: (§3) Cells were pre-seeded in a 96-well plate in complete DMEM without phenol red. During the experiment, 200 μL of either fresh complete DMEM without phenol red or 5 μM leuco-BODIPY formulated in fresh complete DMEM without phenol red was added to the cells. After 30 min, the medium was collected and centrifuged for 10 min at 200×g to remove any dye-stained cell debris. The fluorescence signal in the medium was measured by a fluorescent plate reader (ThermoFisher Fluoroskan Ascent) at an excitation wavelength of 584 nm and emission wavelength of 612 nm. The net fluorescence in the dye-treated EV sample was determined by subtracting the background fluorescence of the untreated EV sample from the fluorescence of the dye-treated EV sample. Complete DMEM without phenol red was also used as a control to determine the background fluorescence of the blank culture medium. After the microplate reader experiment, each EV sample was made up to a total of 1 mL by adding DMEM without phenol red, followed by injection into a Malvern Nanosight NS500 instrument for measuring the total number of EVs in the sample. […] The fluorescence signal per EV was estimated by dividing (1) the net fluorescence (with background subtraction) of the EV sample as measured by the microplate reader by (2) the number of EVs in the sample as measured by NTA.
(§4) Moreover, we incubated the three cell types with our probe for 30 min, isolated the EVs secreted to the culture medium, centrifuged the collected medium to remove any dye-stained cell fragments, and confirmed the detection of fluorescence in the isolated EVs (Table 1). By contrast, for the EVs isolated from the same cell types under the same culture conditions but without treatment by our probe, the fluorescence detected was at the background level of blank culture medium.
(§5) Table 1: Estimate of the number of signals per EV. The fluorescence signal per EV is expressed in arbitrary units (a.u.), a relative value that highly depends on pH, dye concentration, and laser power. […]

[4] = tested on: EVs secreted by HEK293 cells; experiment: Estimation of the fluorescence signal per EV; assay type: cell-based; settings: 5 μM leuco-BODIPY, 30 min, excitation 584 nm, emission 612 nm, net fluorescence divided by number of EVs (NTA)
Description: as §3, §4, §5

[5] = tested on: EVs secreted by HeLa cells; experiment: Estimation of the fluorescence signal per EV; assay type: cell-based; settings: 5 μM leuco-BODIPY, 30 min, excitation 584 nm, emission 612 nm, net fluorescence divided by number of EVs (NTA)
Description: as §3, §4, §5

HeLa cells [6] = experiment: Effect of probe staining on the secretion of EVs (nanoparticle tracking analysis); assay type: cell-based; settings: 5 μM leuco-BODIPY, 3 h, NTA
Description: FIGS. 32A-32B Effect of probe staining on the secretion of EVs. HeLa cells were incubated with (FIG. 32A) complete DMEM or (FIG. 32B) DMEM containing 5 μM leuco-BODIPY for 3 h. After that, the EV sample was isolated from the cells for nanoparticle tracking analysis (NTA).
EV samples were diluted with filtered PBS (0.2 μm) to obtain an EV concentration of 10^8-10^9 particles/mL. For each sample, four 1-min videos were recorded when introduced about 1 mL of the conditioned medium to the NTA system (Malvern NanoSight NS500, Malvern, UK). The temperature was kept at about 18° C. Images in each video were analyzed with NTA 3.1 Build 3.1.45 software (Malvern). Auto settings were used for blur size and maximum jump distance. 2000 frames were examined per sample. […]
as §4

**Q.** Which results are given for `CCOC(=O)C(=Cc1ccc2n1[B-](F)(F)n1c(C=C(C(=O)OCC)C(=O)OCC)ccc1C2(OC)c1ccncc1)C(=O)OCC` [leuco-BODIPY]?
**A.** new absorption band [1]: ~360 nm; cell viability (A549 cells): did not severely reduce cell viability; cell viability (HEK293 cells): did not severely reduce cell viability; cell viability (HeLa cells [2]): did not severely reduce cell viability; Mean fluorescence signal per EV [3]: 4.17 × 10^−7 a.u.; Mean fluorescence signal per EV [4]: 1.67 × 10^−6 a.u.; Mean fluorescence signal per EV [5]: 4.63 × 10^−7 a.u.; effect on EV secretion (size distribution of EVs from dye-stained vs unstained cells) (HeLa cells [6]): limited effect
